Measured values reported in publication doi:10.1101/735704v2, “Selectivity filter instability dominates the low intrinsic activity of the TWIK-1 K2P K^+ Channel” (biorxiv, 2019).

Target: T1, TWIK-1* (K2P1.1/KCNK1, I293A/I294A trafficking mutant) (Homo sapiens, UniProt O00180, I293A/I294A)
T1 construct: full-length channel with mutated di-isoleucine endocytic retention motif (I293A/I294A), subcloned into pFAW, mRNA-injected Xenopus oocytes, giant excised inside-out patches; homodimer
T1 sequence (O00180 1-336 I293A/I294A): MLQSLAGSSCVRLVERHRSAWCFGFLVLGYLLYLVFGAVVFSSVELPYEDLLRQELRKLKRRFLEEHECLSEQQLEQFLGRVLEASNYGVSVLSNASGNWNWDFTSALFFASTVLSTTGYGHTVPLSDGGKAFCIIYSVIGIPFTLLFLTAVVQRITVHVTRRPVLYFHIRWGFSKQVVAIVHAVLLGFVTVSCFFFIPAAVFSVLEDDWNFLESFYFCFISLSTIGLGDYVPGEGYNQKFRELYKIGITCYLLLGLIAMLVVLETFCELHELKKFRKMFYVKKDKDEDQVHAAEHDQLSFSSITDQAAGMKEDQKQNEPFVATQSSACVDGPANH
Test: giant excised inside-out patch electrophysiology, Xenopus oocytes, Hill fit
Assay type: cell-based

`CCCCC[N+](CCCCC)(CCCCC)CCCCC` [tetrapentylammonium] gave an IC50 of 3.3 ± 0.1 µM.
